We go through one compound from US12589130B2, “Aloe extracts for microbial neutralisation” (2QR RESEARCH B.V., priority 2020, dated 2026).

This assay deals with Staphylococcus aureus. The assay is described as follows: Aggregation of fluorescently labelled microorganisms, MAC (Example 1). Format: cell-based. On the procedure:
Microbial cells were fluorescently labelled with fluorescein isothiocyanate (FITC, Sigma-Aldrich, St Louis, MO, USA) or SYTO™ 24 green fluorescent nucleic acid stain (Thermo Fisher, Rockford, IL, USA). FITC labelling was performed by incubation in a 0.2 M NaHCO3 pH 9.5 buffer with a final concentration of 0.2 mg/ml FITC (from a 2 mg/ml FITC stock in DMSO) and shaking for 1 hour at 37° C. and subsequently extensively washing with phosphate buffered saline (PBS). SYTO-24 labelling was performed in PBS using a final 1 μM concentration of the dye for at least 30 minutes and subsequently washing with PBS. […] Aggregation was examined immediately or at a more convenient moment using a fluorescence microscope. […]
The Minimal Aggregation Concentration (MAC), the lowest concentration of polysaccharides still convincingly showing microbial aggregation, was determined by 2-fold serial dilutions and expressed in mg or microgram polysaccharides/ml. […] Quantification of samples was based on dry weight determination unless otherwise indicated.
10× concentrated Aloe vera leaf juice, a 10× decolorized liquid made from purified inner leaf fillet that contained not less than 10% polysaccharides, was purchased at a commercial supplier (ACTIValoe® Aloe vera Gel 10X-D, AloeCorp, Harlingen, TX, USA). […] The Minimal Aggregation Concentration (MAC) of the >12 kDa fraction was determined and compared to that of D-mannose.

Some results are limits rather than exact numbers.

The compound `O=C[C@@H](O)[C@@H](O)[C@H](O)[C@H](O)CO` [D-mannose] returned an MAC (Minimal Aggregation Concentration towards Staphylococcus aureus, mg polysaccharides/ml) greater than 16 mg/mL. Moreover, under “highest concentration tested (16 mg/ml)”, the aggregating activity entry was “did not have aggregating activity”.
